Experimental data from patent publication US12479816B2, “20-HETE formation inhibitors” (UNIVERSITY OF PITTSBURGH—OF THE COMMONWEALTH SYSTEM OF …, priority 2019, dated 2025).
≈ marks a conversion by molar mass, not a printed value.

How the values were obtained:
[1] = test system: 20-HETE formation (CYP4) in RLM; experiment: Inhibition of 20-HETE formation at 250 or 500 nM in RLM microsomal incubations; format: biochemical, rat; conditions: 500 nM compound; RLM 300 μg/ml
Protocol: (§1) To screen the inhibitory effects against 20-HETE formation, compounds were screened in HLM, RLM, RKM and rCYP4F2 microsomal incubations. Compounds dissolved in either 100% methanol or 100% DMSO to yield 10 mM stock solution. Microsomal incubations containing HLM, RLM, RKM (300 μg/ml) or rCYP4F2 (25 pmol/mL), AA (100 μM), NADPH (1 mM) treated with test compounds at various concentrations (500 nM or 250 nM) in a 1 ml total volume in incubation buffer (0.12 M potassium phosphate buffer containing 5 mM magnesium chloride). Reaction was started by adding NADPH to the incubates and was carried out at 37° C. in a shaking water bath for 20 min. Reaction was stopped by placing tubes on ice, followed by adding 125 μl 20-HETE-d6 as internal standard to each sample. Microsomal incubations were extracted with 3 ml ethyl ether twice, dried down under nitrogen gas and reconstituted in 125 μl 80:20 methanol:deionized H2O for analysis. 20-HETE formation was quantified using a validated UPLC-MS/MS assay and normalized by vehicle group. Each compound had three replications (n=3). Vehicle group was used as control to calculate percentage of 20-HETE formation rate. HET0016 (250 nM) was used as positive control. Incubates without NADPH group served as the negative control. An Acquity ultra performance LC autosampler (Waters, Milford, MA) was used to isolate 20-HETE on an UPLC BEH C18, 1.7 μm (2.1×100 mm) reversed-phase column (Waters, Milford, MA) protected by a guard column (2.1×5 mm; Waters, Milford, MA) of the same packing material. Column temperature was maintained at 55° C. Mobile phases consisted of 0.005% acetic acid, 5% acetonitrile in deionized water (A) and 0.005% acetic acid in acetonitrile (B). The flow rate for mobile phases is 0.5 ml/min. The initial mixture of mobile phase was 65:35 of A and B. Mobile phase B increased at 0.4 minutes after injection from 35% to 70% in a linear gradient over 4 minutes, and again increased to 95% over 0.5 minutes where it remained for 0.3 minutes. This was followed by a linear return to initial conditions over 0.1 minutes with a 1.5 minute pre-equilibration period prior to the next sample run. Total run time was 6.4 minutes for each injection. Injection volumes were 7.5 μl. Mass spectrometric analysis was carried out using a TSQ Quantum Ultra (Thermo Fisher Scientific, San Jose, CA) triple quadrupole mass spectrometer using heated electrospray ionization (HESI). Mass spectrometer was operated in negative selective reaction monitoring (SRM) mode with unit resolutions at both Q1 and Q3 set at 0.70 Da full width at half maximum. Scan time was set at 0.01 s and collision gas pressure was 1.3 mTorr. Quantitation of 20-HETE by SRM was performed by monitoring the m/z. Analytical data was acquired and analyzed using Xcaliber 3.0 data system (ThermoFinnigan, San Jose, CA).

[2] = Turbidometric solubility determination; format: physicochemical; conditions: PBS with 1% DMSO, aqueous buffer, kinetic from dmso stock, room temperature, OD620, read-out: Max Solub
Protocol: Solubility determinations shown in Table 3 were obtained turbidometrically and in a manner similar to the one described in Perez et al., J. Biomol. Screen, 2015, 20(2), 254-64. The method requires small volumes of 100× stock concentration drug solution to be prepared in DMSO 0, 0.23, 0.47, 0.94, 1.88, 3.75, 7.5, 15.0, 30.0 and […]. The stock drug concentrations are then diluted 1:100 added into triplicate wells containing PBS in a clear bottom 384 well microtiter to achieve final testing concentrations of 0, 2.3, 4.7, 9.4, 18.8, 37.5, 75, 150, 300, 600 μM in 1% DMSO. The plate is allowed to equilibrate with constant shaking for 2 hours at room temperature. The plate is then placed in a SpectroMax V plate reader to measure absorbance at 620 nm. Increase in absorbance is evident in test wells which precipitation of the compound is evident. The plot of OD620 vs. drug concentration is used to calculate the maximum solubility limit as determined by a statistically significant increase in absorbance above the background levels.

[3] = biological target: T1, rCYP4F2 (Homo sapiens, UniProt P78329); experiment: Inhibition of 20-HETE formation at 250 or 500 nM in rCYP4F2 incubations; format: biochemical; conditions: 500 nM compound; rCYP4F2 25 pmol/mL; read-out: rCYP4F2 % inh. @ 500 nM
T1 sequence (P78329 5-520): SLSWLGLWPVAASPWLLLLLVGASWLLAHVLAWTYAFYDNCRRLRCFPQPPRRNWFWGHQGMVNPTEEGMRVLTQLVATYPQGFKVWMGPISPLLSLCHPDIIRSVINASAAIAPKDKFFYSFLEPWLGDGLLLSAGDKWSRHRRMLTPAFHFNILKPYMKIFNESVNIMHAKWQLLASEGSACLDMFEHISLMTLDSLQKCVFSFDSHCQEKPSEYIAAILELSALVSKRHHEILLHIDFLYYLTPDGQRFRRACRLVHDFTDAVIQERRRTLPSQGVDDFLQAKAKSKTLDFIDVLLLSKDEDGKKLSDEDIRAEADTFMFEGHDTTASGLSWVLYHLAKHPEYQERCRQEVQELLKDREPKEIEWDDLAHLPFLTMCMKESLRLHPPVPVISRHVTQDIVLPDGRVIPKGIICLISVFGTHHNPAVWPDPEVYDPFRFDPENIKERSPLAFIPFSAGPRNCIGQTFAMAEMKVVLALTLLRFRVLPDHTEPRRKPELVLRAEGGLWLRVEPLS
Protocol: as §1

[4] = test system: 20-HETE formation (CYP4) in HLM; experiment: Inhibition of 20-HETE formation at 250 or 500 nM in HLM microsomal incubations; format: biochemical, human; conditions: 500 nM compound; HLM 300 μg/ml, AA 100 μM, 20 min
Protocol: as §1

Row | SMILES | RLM % inh. @ 500 nM [1] | solubility at 2 h [2] | inhibition at 0.5 µM [3] | HLM % inh. @ 500 nM [4]
1 | FC(F)(F)c1cncc(C2CCN(c3ccn[nH]3)CC2)c1 [Compound 103, 3-(1-(1H-Pyrazol-5-yl)piperidin-4-yl)-5-(trifluoromethyl)pyridine] | 0.00% | – | 0% | 0.00%
2 | Nc1ccc(C2CCN(c3cn[nH]c3)CC2)cc1 [Compound 105, 4-(1-(1H-pyrazol-4-yl)piperidin-4-yl)aniline] | 17.00% | – | 78% | 77.30%
3 | O=S1(=O)CCc2cc(C3CCN(c4ccn[nH]4)CC3)ccc21 [Compound 106, 5-(1-(1H-Pyrazol-5-yl)piperidin-4-yl)-2,3-dihydrobenzo[b]thiophene 1,1-dioxide] | 0.00% | – | 0% | 0.00%
4 | O=[N+]([O-])c1ccc(C2CCN(c3cn[nH]c3)CC2)cc1 [Compound 111, 4-(4-Nitrophenyl)-1-(1H-pyrazol-4-yl)piperidine] | 22.30% | – | 60.1% | 43.5%
5 | CS(=O)(=O)Nc1ccc(C2CCN(c3cn[nH]c3)CC2)cc1 [Compound 113, N-(4-(1-(1H-pyrazol-4-yl)piperidin-4-yl)phenyl)methanesulfonamide] | 14.30% | – | 67.6% | 30.5%
6 | Cl.O=C1CCCN1c1ccc(C2CCN(c3cn[nH]c3)CC2)cc1 [Compound 119, 1-(4-(1-(1H-Pyrazol-4-yl)piperidin-4-yl)phenyl)pyrrolidin-2-one hydrochloride] | – | 63 µM | – | –
7 | c1cc(C2CCN(c3cn[nH]c3)CC2)ccc1CN1CCOCC1 [Compound 121, 4-(4-(1-(1H-Pyrazol-4-yl)piperidin-4-yl)benzyl)morpholine] | – | 122 µM (≈ 39.9 µg/mL) | – | –
8 | O=C1COCCN1c1ccc(C2CCN(c3cn[nH]c3)CC2)cc1 [Compound 122, 4-(4-(1-(1H-Pyrazol-4-yl)piperidin-4-yl)phenyl)morpholin-3-one] | – | 247 µM (≈ 80.7 µg/mL) | – | –
9 | Fc1cc(C2CCN(c3cn[nH]c3)CC2)ccc1N1CCOCC1 [Compound 123, 4-(4-(1-(1H-Pyrazol-4-yl)piperidin-4-yl)-2-fluorophenyl)morpholine] | – | 85.5 µM (≈ 28.2 µg/mL) | – | –
10 | Fc1cc(N2CCOCC2)ccc1C1CCN(c2cn[nH]c2)CC1 [Compound 124, 4-(4-(1-(1H-Pyrazol-4-yl)piperidin-4-yl)-3-fluorophenyl)morpholine] | – | 26.6 µM (≈ 8.79 µg/mL) | – | –

More lines, now with the values ahead:

Row | RLM % inh. @ 500 nM [1] | solubility at 2 h [2] | inhibition at 0.5 µM [3] | HLM % inh. @ 500 nM [4] | SMILES
11 | 61.00% | 121 µM (≈ 31.7 µg/mL) | 81.3% | 77.5% | Clc1cccc(C2CCN(c3cn[nH]c3)CC2)c1 [Compound 61, 4-(3-Chlorophenyl)-1-(1H-pyrazol-4-yl)piperidine]
12 | 20.30% | – | 41.3% | 21.90% | O=[N+]([O-])c1ccc(C2CCN(c3ccn[nH]3)CC2)cc1 [Compound 112, 4-(4-Nitrophenyl)-1-(1H-pyrazol-5-yl)piperidine]
13 | – | 443 µM (≈ 152 µg/mL) | – | – | O=C1CCCN1Cc1ccc(C2CCN(c3cn[nH]c3)CC2)c(F)c1 [Compound 118, 1-(4-(1-(1H-Pyrazol-4-yl)piperidin-4-yl)-3-fluorobenzyl)pyrrolidin-2-one]
14 | – | > 600 µM | – | – | C[C@H](c1ccc(C2CCN(c3cn[nH]c3)CC2)cc1)N1CCCC1=O [Compound 125, (R)-1-(1-(4-(1-(1H-pyrazol-4-yl)piperidin-4-yl)phenyl)ethyl)pyrrolidin-2-one]
15 | – | > 600 µM | – | – | C[C@@H](c1ccc(C2CCN(c3cn[nH]c3)CC2)cc1)N1CCCC1=O [Compound 126, (S)-1-(1-(4-(1-(1H-pyrazol-4-yl)piperidin-4-yl)phenyl)ethyl)pyrrolidin-2-one]
16 | – | 151 µM (≈ 41 µg/mL) | – | – | COc1ccc(CC2CCN(c3cn[nH]c3)CC2)cc1 [Compound 127, 4-[(4-Methoxyphenyl)methyl]-1-(1H-pyrazol-4-yl)piperidine]
